Assay results published in patent publication US5847092A (Zambon Group S.p.A., priority 1994, dated 1998).
In brackets after ≈: the same amount, converted by molar mass. Read-outs that look alike come from different tables or passages of the source.

Legend:
[1] = tested on: Klebsiella pneumoniae ZC 2; assay: In vitro antibacterial activity, MIC, broth microdilution; assay type: cell-based; conditions: Klebsiella pneumoniae, ZC2; K. pneumoniae ZC 2; MHB; 37° C., 18 hours; read-out: minimum inhibiting concentration MIC
Method: (§1) a) In vitro antibacterial activity The determination of the minimum inhibiting concentrations (MIC), with respect to Gram-positive and Gram-negative bacteria was carried out through the micromethod of gradual broth dilution in double series [National Committee for Clinical Laboratory Standards, 1990; Methods for dilution antimicrobial susceptibility tests for bacteria that grow aerobically; Approved standards […], Villanova, Pa.], by using Mueller Hinton Broth (MHB) as a culture medium. In the case of […] bacteria, horse serum at 5% (Streptococcus pneumoniae and Streptococcus pyogenes) was added to the medium. Roxithromycin and Clarithromycin [The Merck Index, XI Ed., No. 8253 and 2340, respectively] were used as reference macrolides. MIC, expressed as (μg/ml), were determined after incubation of the microplates at 37° C. for 18 hours, evaluating the lowest antibiotic concentration enabling the inhibition of bacterial development.

[2] = tested on: Streptococcus pneumoniae BS 4; assay: as above; assay type: cell-based; conditions: Streptococcus pneumoniae, BS4; S. pneumoniae BS 4; MHB + 5% horse serum; 37° C., 18 hours; read-out: minimum inhibiting concentration MIC
Method: as §1

[3] = tested on: Staphylococcus aureus PV 14; assay: as above; assay type: cell-based; conditions: Staphylococcus aureus, PV14; S. aureus PV 14; MHB; 37° C., 18 hours; read-out: minimum inhibiting concentration MIC
Method: as §1

[4] = tested on: Streptococcus pyogenes A 26; assay: as above; assay type: cell-based; conditions: Streptococcus pyogenes, A26; S. pyogenes A 26; MHB + 5% horse serum; 37° C., 18 hours; read-out: minimum inhibiting concentration MIC
Method: as §1

[5] = tested on: Streptococcus pyogenes C 203; assay: as above; assay type: cell-based; conditions: Streptococcus pyogenes, C203; S. pyogenes C 203; MHB + 5% horse serum; 37° C., 18 hours; read-out: minimum inhibiting concentration MIC
Method: as §1

[6] = tested on: Streptococcus pneumoniae BS 3; assay: as above; assay type: cell-based; conditions: Streptococcus pneumoniae, BS3; S. pneumoniae BS 3; MHB + 5% horse serum; 37° C., 18 hours; read-out: minimum inhibiting concentration MIC
Method: as §1

[7] = tested on: Escherichia coli ATCC 25922; assay: as above; assay type: cell-based; conditions: Escherichia coli, ATCC25922; E. coli ATCC 25922; MHB; 37° C., 18 hours; read-out: minimum inhibiting concentration MIC
Method: as §1

[8] = tested on: Enterococcus faecalis ATCC 29212; assay: as above; assay type: cell-based; conditions: Enterococcus faecalis, ATCC29212; E. faecalis ATCC 29212; MHB; 37° C., 18 hours; read-out: minimum inhibiting concentration MIC
Method: as §1

[9] = tested on: Streptococcus pyogenes C 203; assay: In vivo antibacterial activity, experimental pulmonary infection in mouse; conditions: for ED50: Streptococcus pyogenes, C203, ip, 240 h, intraperitoneal single dose, read-out: average protecting dose PD50
Method: The in vivo antibacterial activity of the compounds of formula (I), expressed as average protecting dose PD50 (mg/Kg), was evaluated by means of experimental pulmonary infection induced in mouse by Streptococcus pyogenes (example 23).
b) In vivo antibacterial activity
The therapeutical effectiveness, expressed as average protecting dose (PD50), of the considered compounds of formula (I) was evaluated by experimental pulmonary infection induced in mouse by Streptococcus pyogenesC 203.
Charles River albin mice (strain CD 1), of body weight comprised between 23-35 g, stabulated in groups of 6 for cage and normo-feeded with standard diet and water ad libitum were used. A suspension of S. pyogenes C 203 (corresponding about to 10^8 UFC) in tryptose broth (0.05 ml) was intranasally administered to each mouse anesthesized with a mixture of ethyl ether and chloroform.
The compounds under examination were intraperitoneally administered as a single dose, in 0.2% Tween suspension, 24 hours before or 1 hour after the infection.
Mice mortality observation was prolonged up to 10 days from the infection.
PD50 calculation, expressed as (mg/Kg), was carried out through the analysis of probit.
In vivo antibacterial activity, expressed as average protecting dose PD50 (mg/Kg), 24 hours before and 1 hour after the experimental pulmonary infection induced in mouse by Streptococcus pyogenes C 203, of the compounds 4, 10, 16-19, 21, 23, 26-27, 29-30, 33-35 and 38 and of the reference compounds Roxithromycin and Clarithromycin.

Structure (SMILES)	MIC [1]	MIC [2]	MIC [3]	MIC [4]	MIC [5]	MIC [6]	MIC [7]	MIC [8]	ED50 ([9]; 1 hour after infection)	ED50 ([9]; 24 hours before infection)	in vivo activity, pulmonary infection (in words) ([9]; administered 24 hours before the infection)
CC[C@H]1OC(=O)[C@H](C)[C@@H](O[C@H]2C[C@@](C)(OC)[C@@H](O)[C@H](C)O2)[C@H](C)[C@@H](O[C@@H]2O[C@H](C)C[C@H](N(C)C)[C@H]2O)[C@](C)(O)C[C@@H](C)/C(=N\OCCNCCCCCNCc2ccccc2)[C@H](C)[C@@H](O)[C@]1(C)O [Compound 10, Erythromycin A (E)-9-[0-[2-[5-(phenylmethylamino)pentylamino]ethyl]oxime]]	16 µg/mL (≈ 16.5 µM)	0.0156 µg/mL	0.5 µg/mL (≈ 0.517 µM)	0.0078 µg/mL	0.0039 µg/mL	0.0156 µg/mL	4 µg/mL (≈ 4.14 µM)	4 µg/mL (≈ 4.14 µM)	2.36 mg/kg	5.8 mg/kg	–
CC[C@H]1OC(=O)[C@H](C)[C@@H](O[C@H]2C[C@@](C)(OC)[C@@H](O)[C@H](C)O2)[C@H](C)[C@@H](O[C@@H]2O[C@H](C)C[C@H](N(C)C)[C@H]2O)[C@](C)(O)C[C@@H](C)/C(=N\OCCNCCCCCCNCc2cccc(C(F)(F)F)c2)[C@H](C)[C@@H](O)[C@]1(C)O [Compound 19, Erythromycin A (E)-9-[0-[2-[6-[(3-trifluoromethylphenyl)methylamino]hexylamino]ethyl]oxime]]	8 µg/mL (≈ 7.62 µM)	0.0078 µg/mL	1 µg/mL (≈ 0.953 µM)	0.0156 µg/mL	0.0156 µg/mL	0.0156 µg/mL	2 µg/mL (≈ 1.91 µM)	2 µg/mL (≈ 1.91 µM)	1.95 mg/kg	4.84 mg/kg	–
CC[C@H]1OC(=O)[C@H](C)[C@@H](O[C@H]2C[C@@](C)(OC)[C@@H](O)[C@H](C)O2)[C@H](C)[C@@H](O[C@@H]2O[C@H](C)C[C@H](N(C)C)[C@H]2O)[C@](C)(O)C[C@@H](C)/C(=N\OCCNCCCCCCNCc2ccc([N+](=O)[O-])cc2)[C@H](C)[C@@H](O)[C@]1(C)O [Compound 35]	4 µg/mL (≈ 3.9 µM)	0.0039 µg/mL	0.25 µg/mL (≈ 0.244 µM)	0.0078 µg/mL	0.0019 µg/mL	0.0039 µg/mL	1 µg/mL (≈ 0.974 µM)	0.5 µg/mL (≈ 0.487 µM)	3 mg/kg	6 mg/kg	–
CC[C@H]1OC(=O)[C@H](C)[C@@H](O[C@H]2C[C@@](C)(OC)[C@@H](O)[C@H](C)O2)[C@H](C)[C@@H](O[C@@H]2O[C@H](C)C[C@H](N(C)C)[C@H]2O)[C@](C)(O)C[C@@H](C)/C(=N\OCCNCCCCCCNCc2cccc([N+](=O)[O-])c2)[C@H](C)[C@@H](O)[C@]1(C)O [Compound 34, Erythromycin A (E)-9-[0-[2-[6-[(3-nitrophenyl)methylamino]hexylamino]ethyl]oxime]]	8 µg/mL (≈ 7.79 µM)	0.0039 µg/mL	0.25 µg/mL (≈ 0.244 µM)	0.0078 µg/mL	0.0039 µg/mL	0.0019 µg/mL	1 µg/mL (≈ 0.974 µM)	1 µg/mL (≈ 0.974 µM)	1.88 mg/kg	6.8 mg/kg	–
CC[C@H]1OC(=O)[C@H](C)[C@@H](O[C@H]2C[C@@](C)(OC)[C@@H](O)[C@H](C)O2)[C@H](C)[C@@H](O[C@@H]2O[C@H](C)C[C@H](N(C)C)[C@H]2O)[C@](C)(OC)C[C@@H](C)C(=O)[C@H](C)[C@@H](O)[C@]1(C)O [Clarithromycin, reference compound]	128 µg/mL (≈ 171 µM)	0.0156 µg/mL	0.25 µg/mL (≈ 0.334 µM)	0.0078 µg/mL	0.0078 µg/mL	0.0078 µg/mL	64 µg/mL (≈ 85.6 µM)	1 µg/mL (≈ 1.34 µM)	3.25 mg/kg	> 50 mg/kg	inactive
CC[C@H]1OC(=O)[C@H](C)[C@@H](O[C@H]2C[C@@](C)(OC)[C@@H](O)[C@H](C)O2)[C@H](C)[C@@H](O[C@@H]2O[C@H](C)C[C@H](N(C)C)[C@H]2O)[C@](C)(O)C[C@@H](C)/C(=N\OCCNCCCCCCNCc2ccc(OC)cc2)[C@H](C)[C@@H](O)[C@]1(C)O [Compound 17, Erythromycin A (E)-9-[0-[2-[6-[(4-methoxyphenyl)methylamino]hexylamino]ethyl]oxime]]	16 µg/mL (≈ 15.8 µM)	0.0625 µg/mL	0.25 µg/mL (≈ 0.247 µM)	0.0625 µg/mL	0.0039 µg/mL	0.0312 µg/mL	4 µg/mL (≈ 3.96 µM)	4 µg/mL (≈ 3.96 µM)	1.17 mg/kg	8.16 mg/kg	–
CC[C@H]1OC(=O)[C@H](C)[C@@H](O[C@H]2C[C@@](C)(OC)[C@@H](O)[C@H](C)O2)[C@H](C)[C@@H](O[C@@H]2O[C@H](C)C[C@H](N(C)C)[C@H]2O)[C@](C)(O)C[C@@H](C)/C(=N\OCCNCCCCCCNCc2ccccc2)[C@H](C)[C@@H](O)[C@]1(C)O [Compound 4, Erythromycin A (E)-9-[0-[2-[6-(phenylmethylamino)hexylamino]ethyl]oxime]]	16 µg/mL (≈ 16.3 µM)	0.0156 µg/mL	0.25 µg/mL (≈ 0.255 µM)	0.0156 µg/mL	0.0039 µg/mL	0.0156 µg/mL	4 µg/mL (≈ 4.08 µM)	4 µg/mL (≈ 4.08 µM)	0.9 mg/kg	4.78 mg/kg	–
CC[C@H]1OC(=O)[C@H](C)[C@@H](O[C@H]2C[C@@](C)(OC)[C@@H](O)[C@H](C)O2)[C@H](C)[C@@H](O[C@@H]2O[C@H](C)C[C@H](N(C)C)[C@H]2O)[C@](C)(O)C[C@@H](C)/C(=N\OCCNCCCCCCNCc2ccc(-c3ccccc3)cc2)[C@H](C)[C@@H](O)[C@]1(C)O [Compound 30, Erythromycin A (E)-9-[0-[2-[6-[(biphenyl-4-yl)methylamino]hexylamino]ethyl]oxime]]	2 µg/mL (≈ 1.89 µM)	0.0156 µg/mL	0.5 µg/mL (≈ 0.473 µM)	0.0156 µg/mL	0.0078 µg/mL	0.0156 µg/mL	1 µg/mL (≈ 0.946 µM)	1 µg/mL (≈ 0.946 µM)	19.3 mg/kg	19.3 mg/kg	–
CC[C@H]1OC(=O)[C@H](C)[C@@H](O[C@H]2C[C@@](C)(OC)[C@@H](O)[C@H](C)O2)[C@H](C)[C@@H](O[C@@H]2O[C@H](C)C[C@H](N(C)C)[C@H]2O)[C@](C)(O)C[C@@H](C)/C(=N\OCCNCCCCCCNCc2cccc(Oc3ccccc3)c2)[C@H](C)[C@@H](O)[C@]1(C)O [Compound 27, Erythromycin A (E)-9-[0-[2-[6-[(3-phenoxyphenyl)methylamino]hexylamino]ethyl]oxime]]	2 µg/mL (≈ 1.86 µM)	0.0078 µg/mL	0.5 µg/mL (≈ 0.466 µM)	0.0156 µg/mL	0.0078 µg/mL	0.0078 µg/mL	1 µg/mL (≈ 0.932 µM)	1 µg/mL (≈ 0.932 µM)	15.6 mg/kg	15.6 mg/kg	–
CC[C@H]1OC(=O)[C@H](C)[C@@H](O[C@H]2C[C@@](C)(OC)[C@@H](O)[C@H](C)O2)[C@H](C)[C@@H](O[C@@H]2O[C@H](C)C[C@H](N(C)C)[C@H]2O)[C@](C)(O)C[C@@H](C)/C(=N\OCCNCCCCCCNCc2ccccc2C(F)(F)F)[C@H](C)[C@@H](O)[C@]1(C)O [Compound 21, Erythromycin A (E)-9-[0-[2-[6-[(2-trifluoromethylphenyl)methylamino]hexylamino]ethyl]oxime]]	16 µg/mL (≈ 15.2 µM)	0.0039 µg/mL	1 µg/mL (≈ 0.953 µM)	0.0078 µg/mL	0.0156 µg/mL	0.0078 µg/mL	4 µg/mL (≈ 3.81 µM)	2 µg/mL (≈ 1.91 µM)	0.82 mg/kg	5.95 mg/kg	–
